Assay results as given in patent US10995052B2, “Biaromatic propynyl compounds, pharmaceutical and cosmetic compositions containing same, and uses thereof” (GALDERMA RESEARCH & DEVELOPMENT, priority 2016, dated 2021).
pKd: −log10 of the molar value.

How the values were obtained:
Test in all cases: Transactivation test in HeLa cells (luciferase reporter), apparent Kd by Schild regression
Format in all cases: cell-based
RAR alpha = target: T1, RAR alpha (Homo sapiens, UniProt P10276); conditions: stably transfected HeLa cells, versus reference antagonist, 18 hours incubation, read-out: RAR alpha Kdapp
T1 sequence (P10276 183-417 limits assumed): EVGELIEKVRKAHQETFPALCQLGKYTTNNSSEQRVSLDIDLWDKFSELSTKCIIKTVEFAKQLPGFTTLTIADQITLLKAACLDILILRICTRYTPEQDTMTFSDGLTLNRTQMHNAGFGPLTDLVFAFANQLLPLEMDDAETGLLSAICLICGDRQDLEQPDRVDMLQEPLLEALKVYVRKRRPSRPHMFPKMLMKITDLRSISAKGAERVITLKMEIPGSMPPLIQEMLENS
Description: (§1) Activation of receptors by an agonist (activator) in HeLa cells leads to the expression of a reporter gene, luciferase, which generates light in the presence of a substrate. Therefore the activation of receptors can be measured by quantifying the luminescence produced after incubation of the cells in the presence of a reference antagonist. The activator products displace the antagonist from its site, thus permitting the receptor to be activated. The activity is measured by quantifying the increase in light produced. This measurement determines the activating activity of the useful compound in the invention.
(§2) In this study, a constant is determined that represents the affinity of the molecule for the receptor. This value can fluctuate according to the basal activity and expression of the receptor; it is designated apparent Kd (KdApp). […]
(§3) Full agonist controls, also called 100% controls, (4-[2-(5,5,8,8 tetramethyl-5,6,7,8 tetrahydronaphthalene-2-yl)propenyl]-benzoic acid) and inverse agonist controls, also called 0% controls, (4-{(E)-3-[4-(4-tert-butyl-phenyl)-5,5,8,8-tetramethyl-5,6,7,8-tetrahydro-naphthalen-2-yl]-3-oxo-propenyl}-benzoic acid) are also measured.
(§4) These cross curves allow determining the AC50 (concentration at which 50% activation of the receptor is observed) of the reference ligand at different concentrations of the product to be tested. These AC50s are used to calculate the Schild regression by plotting a line conforming to the Schild equation (“Quantitation in receptor pharmacology” Terry P. Kenakin, Receptors and Channels, 2001, 7, 371-385).
(§5) In the case of an […], the AC50 is calculated by plotting the curve of the product at the concentration of the reference ligand giving 80% activation. The percentage of activation that corresponds to the maximum level of activity obtained is also measured. […]
(§6) The culture medium is removed by turning over and 100 μl of a 1:1 PBS (phosphate buffer solution)/luciferin mixture is added to each well. After 5 minutes, the plates are read by the luminescence reader.

RAR beta = target: T2, RAR beta (Homo sapiens, UniProt P10826); conditions: stably transfected HeLa cells, versus reference antagonist, 18 hours incubation, read-out: RAR beta Kdapp
T2 sequence (P10826 183-417 limits assumed): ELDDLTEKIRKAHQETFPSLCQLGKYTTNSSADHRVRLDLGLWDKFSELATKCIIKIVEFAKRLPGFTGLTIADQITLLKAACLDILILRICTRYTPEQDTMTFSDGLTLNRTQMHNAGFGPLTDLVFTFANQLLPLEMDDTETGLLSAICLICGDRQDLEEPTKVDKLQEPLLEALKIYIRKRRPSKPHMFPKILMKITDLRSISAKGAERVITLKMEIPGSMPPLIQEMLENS
Description: as §1, §2, §3, §4, §5, §6

RAR gamma = target: T3, RAR gamma (Homo sapiens, UniProt P13631); conditions: stably transfected HeLa cells, versus reference antagonist, 18 hours incubation, read-out: RAR gamma Kdapp
T3 sequence (P13631 178-423 limits assumed): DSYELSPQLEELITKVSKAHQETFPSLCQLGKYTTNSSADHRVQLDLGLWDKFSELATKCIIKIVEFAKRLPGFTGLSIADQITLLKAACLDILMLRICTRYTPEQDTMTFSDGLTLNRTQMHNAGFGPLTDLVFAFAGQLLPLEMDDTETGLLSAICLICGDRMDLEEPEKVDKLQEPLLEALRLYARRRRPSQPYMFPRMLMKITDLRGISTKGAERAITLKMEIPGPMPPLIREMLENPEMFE
Description: as §1, §2, §3, §4, §5, §6

CC1(C)CCC(C)(C)c2cc(-c3cc(-c4ccc(C(=O)O)cc4)ccc3CCCO)ccc21 [Compound 1, 4′-(3-hydroxy-propyl)-3′-(5,5,8,8-tetramethyl-5,6,7,8-tetrahydro-naphthalen-2-yl)-biphenyl-4-carboxylic acid]
pKd (RAR alpha): 6.92
pKd (RAR beta): 8.40
pKd (RAR gamma): 8.40
